Assay results published in patent US20260240832A1, “USE OF NITROXOLINE COMPOUND IN ENHANCING EFFECT OF ANTIBACTERIAL AGENT” (Jiangsu Yahong Meditech Co., Ltd., priority 2022, published 2026).
Where two headings read alike, the source gives them in different places.

Experiments:
[1] = tested on: carbapenem-resistant Acinetobacter baumannii; assay: Chessboard microbroth dilution MIC/FIC, compound 1 in combination with polymyxin; assay type: cell-based; conditions: for Polymyxin MIC in combination: with compound 1
Source text: This experiment is designed to determine the minimum inhibitory concentration (MIC) of compound 1 in combination with polymyxin against carbapenem-resistant Acinetobacter baumannii and to calculate the fractional inhibitory concentration (FIC) index.
(§1) Test bacteria: 10 strains of carbapenem-resistant Acinetobacter baumannii are clinically isolated strains, and are provided by Shanghai Junji Medical Laboratory Co., Ltd.
(§2) According to the recommendation of the Clinical and Laboratory Standards Institute (CLSI), the microbroth dilution method designed by the chessboard method was used to determine the minimum inhibitory concentration (MIC) of compound 1 in combination with polymyxin against the above strains, and the fractional inhibitory concentration (FIC) index was calculated.
(§3) Compound 1 was dissolved in dimethyl sulfoxide to obtain a stock solution I with a concentration of 51200 mg/L. The stock solution I was subjected to 1:1 gradient dilution with dimethyl sulfoxide to obtain a dilution solution with a concentration range of 51200 to 25 mg/L. The corresponding concentrations were added to sterile water for 100-fold dilution to obtain working solution I with a concentration range of 512 to 0.25 mg/L.
Polymyxin was dissolved in sterile water to obtain a stock solution with a concentration of 5120 mg/L. The polymyxin stock solution was subjected to 1:1 gradient dilution with sterile water to obtain a working solution II with a concentration range of 512 to 0.25 mg/L.
(§4) According to the method in Example 1, a drug sensitive plate was prepared with working solution I and working solution II, and the specific process will not be repeated here.
(§5) (2) The culture medium of the bacterial solution: Cation-Adjusted Mueller-Hinton Broth (CAMHB), a product of BBL, USA, batch number 9015952.
(§6) (3) Formulation method of bacterial solution: According to the direct colony suspension method, the test bacteria cultured overnight were prepared into a 0.5 McFarland turbidity tube using physiological saline. Then, the resulting solution was dilute 100 times with the above culture medium. 100 μL of the resulting bacterial solution was mixed well with the solution (100 μL) in each well of the drug sensitivity plate, and the final inoculation amount was 10^5 CFU/mL.
(§7) (4) Culture conditions: Culturing at 35±2° C. for 20 hours in air.
(§8) (1) The experimental results were determined according to the standard of CLSI 2020 M100 30th edition.
(§9) wherein: FIC≤0.5 indicates synergistic effect; 0.5<FIC≤1.0 indicates additive effect; 1<FIC≤2.0 indicates irrelevant effect; and FIC>2 indicates antagonistic effect.

[2] = tested on: carbapenem-resistant Acinetobacter baumannii; assay: Chessboard microbroth dilution MIC/FIC, compound 2 in combination with polymyxin; assay type: cell-based; conditions: for Polymyxin MIC in combination: with compound 2; for MIC: Acinetobacter baumannii, read-out: Compound 2 MIC alone; for Compound 2 MIC in combination: with polymyxin
Source text: This experiment is designed to determine the minimum inhibitory concentration (MIC) of compound 2 in combination with polymyxin against carbapenem-resistant Acinetobacter baumannii and to calculate the fractional inhibitory concentration (FIC) index.
as §1
as §2, with “2” for “1”
as §3, with “Compound 2” for “Compound 1”
Polymyxin was dissolved in sterile water to obtain a stock solution with a concentration of 5120 mg/L. The […] stock solution was subjected to 1:1 gradient dilution with sterile water to obtain a working solution II with a concentration range of 512 to 0.25 mg/L.
as §4, §5, §6, §7, §8, §9

[3] = strain 18-J11-001, compound 2 + polymyxin
[4] = strain 18-J11-002, compound 2 + polymyxin
[5] = strain 18-J11-034, compound 2 + polymyxin
[6] = strain 18-J11-097, compound 2 + polymyxin
[7] = strain 18-J15-030, compound 2 + polymyxin
[8] = strain 18-J21-095, compound 2 + polymyxin
[9] = strain 18-J24-015, compound 2 + polymyxin
[10] = strain 18-J24-033, compound 2 + polymyxin
[11] = strain 18-J40-021, compound 2 + polymyxin
[12] = strain 18-J51-052, compound 2 + polymyxin

polymyxin E [reference compound]
Polymyxin MIC alone ([1]; strain 18-J11-001): 0.25 µg/mL | Polymyxin MIC in combination ([1]; strain 18-J11-001): 0.06 µg/mL | Polymyxin MIC alone ([1]; strain 18-J11-002): 0.25 µg/mL | Polymyxin MIC in combination ([1]; strain 18-J11-002): 0.06 µg/mL | Polymyxin MIC alone ([1]; strain 18-J11-034): 0.5 µg/mL | Polymyxin MIC in combination ([1]; strain 18-J11-034): 0.125 µg/mL | Polymyxin MIC alone ([1]; strain 18-J11-097): 0.25 µg/mL | Polymyxin MIC in combination ([1]; strain 18-J11-097): 0.06 µg/mL | Polymyxin MIC alone ([1]; strain 18-J15-030): 0.5 µg/mL | Polymyxin MIC in combination ([1]; strain 18-J15-030): 0.125 µg/mL | Polymyxin MIC alone ([1]; strain 18-J21-095): 0.25 µg/mL | Polymyxin MIC in combination ([1]; strain 18-J21-095): 0.06 µg/mL | Polymyxin MIC alone ([1]; strain 18-J24-015): 0.5 µg/mL | Polymyxin MIC in combination ([1]; strain 18-J24-015): 0.125 µg/mL | Polymyxin MIC alone ([1]; strain 18-J24-033): 0.5 µg/mL | Polymyxin MIC in combination ([1]; strain 18-J24-033): 0.125 µg/mL | Polymyxin MIC alone ([1]; strain 18-J40-021): 1 µg/mL | Polymyxin MIC in combination ([1]; strain 18-J40-021): 0.125 µg/mL | Polymyxin MIC alone ([1]; strain 18-J51-052): 0.5 µg/mL | Polymyxin MIC in combination ([1]; strain 18-J51-052): 0.125 µg/mL | Polymyxin MIC alone ([2]; strain 18-J11-001): 0.5 µg/mL | Polymyxin MIC in combination ([2]; strain 18-J11-001): 0.125 µg/mL | Polymyxin MIC alone ([2]; strain 18-J11-002): 1 µg/mL | Polymyxin MIC in combination ([2]; strain 18-J11-002): 0.25 µg/mL | Polymyxin MIC alone ([2]; strain 18-J11-034): 0.5 µg/mL | Polymyxin MIC in combination ([2]; strain 18-J11-034): 0.25 µg/mL | Polymyxin MIC alone ([2]; strain 18-J11-097): 0.5 µg/mL | Polymyxin MIC in combination ([2]; strain 18-J11-097): 0.125 µg/mL | Polymyxin MIC alone ([2]; strain 18-J15-030): 0.5 µg/mL | Polymyxin MIC in combination ([2]; strain 18-J15-030): 0.25 µg/mL | Polymyxin MIC alone ([2]; strain 18-J21-095): 0.5 µg/mL | Polymyxin MIC in combination ([2]; strain 18-J21-095): 0.25 µg/mL | Polymyxin MIC alone ([2]; strain 18-J24-015): 1 µg/mL | Polymyxin MIC in combination ([2]; strain 18-J24-015): 0.25 µg/mL | Polymyxin MIC alone ([2]; strain 18-J24-033): 1 µg/mL | Polymyxin MIC in combination ([2]; strain 18-J24-033): 0.125 µg/mL | Polymyxin MIC alone ([2]; strain 18-J40-021): 1 µg/mL | Polymyxin MIC in combination ([2]; strain 18-J40-021): 0.25 µg/mL | Polymyxin MIC alone ([2]; strain 18-J51-052): 1 µg/mL | Polymyxin MIC in combination ([2]; strain 18-J51-052): 0.25 µg/mL

O=[N+]([O-])c1c(Cl)c(F)c2cccnc2c1O [Compound 2, 5-fluoro-6-chloro-7-nitroquinolin-8-ol]
MIC ([2]; strain 18-J11-001): 8 µg/mL | MIC ([2]; strain 18-J11-002): 4 µg/mL | MIC ([2]; strain 18-J11-034): 4 µg/mL | MIC ([2]; strain 18-J11-097): 4 µg/mL | MIC ([2]; strain 18-J15-030): 4 µg/mL | MIC ([2]; strain 18-J21-095): 4 µg/mL | MIC ([2]; strain 18-J24-015): 4 µg/mL | MIC ([2]; strain 18-J24-033): 4 µg/mL | MIC ([2]; strain 18-J40-021): 4 µg/mL | MIC ([2]; strain 18-J51-052): 4 µg/mL | change of the MIC of polymyxin by the combination ([2]; compound 2 + polymyxin): significantly reduce | effect of the combination (summary of Table 3) ([2]; compound 2 + polymyxin): synergistic effect or additive effect | FIC index [2, 3]: 0.375 | Results [2, 3]: Synergistic | Compound 2 MIC in combination ([2]; strain 18-J11-001): 1 µg/mL | FIC index [2, 4]: 0.500 | Results [2, 4]: Synergistic | Compound 2 MIC in combination ([2]; strain 18-J11-002): 1 µg/mL | FIC index [2, 5]: 0.750 | Results [2, 5]: Additive | Compound 2 MIC in combination ([2]; strain 18-J11-034): 1 µg/mL | FIC index [2, 6]: 0.375 | Results [2, 6]: Synergistic | Compound 2 MIC in combination ([2]; strain 18-J11-097): 0.5 µg/mL | FIC index [2, 7]: 0.750 | Results [2, 7]: Additive | Compound 2 MIC in combination ([2]; strain 18-J15-030): 1 µg/mL | FIC index [2, 8]: 1.000 | Results [2, 8]: Additive | Compound 2 MIC in combination ([2]; strain 18-J21-095): 2 µg/mL | FIC index [2, 9]: 0.500 | Results [2, 9]: Synergistic | Compound 2 MIC in combination ([2]; strain 18-J24-015): 1 µg/mL | FIC index [2, 10]: 0.625 | Results [2, 10]: Additive | Compound 2 MIC in combination ([2]; strain 18-J24-033): 2 µg/mL | FIC index [2, 11]: 0.500 | Results [2, 11]: Synergistic | Compound 2 MIC in combination ([2]; strain 18-J40-021): 1 µg/mL | FIC index [2, 12]: 0.500 | Results [2, 12]: Synergistic | Compound 2 MIC in combination ([2]; strain 18-J51-052): 1 µg/mL
